In patent US11390631B1, “Benzodiazepine derivatives as RSV inhibitors” (priority 2015, dated 2022) one finds EC50 data, which are given here for 51 molecules.

The subject of the first experiment is Human RSV-A (“Long” strain). As to the kind of experiment: RSV-A assay: inhibition of cytopathic effect in Hep-2 cells, ATPlite readout. The settings on record: Hep-2 cells, MOI 0.1, 5-day incubation, ATPlite; read-out: Human RSV-A (“Long” strain) EC50. It counts as cell-based, Human respiratory syncytial virus (HRSV). From the text: Hep-2 cells, (originally derived from tumors grown in irradiated-cortisonised weanling rats that had been injected with epidermoid carcinoma tissue from a person's larynx, but later found to be indistinguishable from HeLa cells by PCR DNA analysis), were used for the culturing of genotype A, “Long” strain RSV. Flasks were inoculated with RSV and viral stocks were collected once cytopathic effect (CPE) was greater than 90%. Viral stocks in 25% sucrose media were snap frozen using liquid nitrogen to increase viral stability. Viral stock titers were quantified by tissue culture infectious dose 50% (TCID50) using 8,000 cells per well and 3-fold viral dilutions across a 96-well plate, cultured for 4 days. Viral stock titers were also quantified by a plaque forming unit assay, as described elsewhere.
Following extensive parameter testing, the final assay is run as follows: Hep-2 cells are seeded into the inner 60 wells of a 96-well plate at 8,000 cells per well in a volume of 50 μL using Growth Media (DMEM without phenol red, 1% L-Glut, 1% Penn/Strep, 1% nonessential amino acids, 10% heat-inactivated FBS). 2-fold serial dilutions of control and test compounds are added to the wells in duplicate in a total volume of 25 μL. Viral stock is then added to the wells at a multiplicity of infection (MOI) of 0.1 in a volume of 25 μL, bringing the total volume of each well to 100 μL. The MOI is calculated using the PFU/mL, or TCID50 if unavailable. Each 96-well plate has a control column of 6 wells with cells and virus but no compound (negative control, max CPE), a column with cells but no compound or virus (positive control, minimum CPE), and a column with no cells or virus or compound (background plate/reagent control). The control wells with cells but no virus are given an additional 25 uL of growth media containing an equal quantity of sucrose as those wells receiving the viral stock in order to keep consistent in media and volume conditions. The outer wells of the plate are filled with 125 μL of moat media (DMEM, 1% Penn/Strep) to act as a thermal and evaporative moat around the test wells. Following a 5-day incubation period, the plates are read using ATPlite (50 uL added per well), which quantifies the amount of ATP (a measure of cell health) present in each well. Assay plates are read using the Envision luminometer. In parallel, cytotoxicity is examined on an additional 96-well plate treated in an identical manner, but substituting the 25 μL of viral stock for 25 μL of growth media. […] EC50 ranges are as follows: A<0.4 μM; B 0.4-0.8 μM; C>0.8 μM and CC50 ranges are as follows: A>50 μM; B 10-50 μM; C<10 μM.
(Damage to the host cells serves as the signal in cytopathic effect assays.)
As usually defined, the EC50 is the concentration needed to bring the measured effect to its halfway point. Consider `O=C1Nc2ccccc2C(c2ccccc2)=N[C@@H]1Nc1nnc(-c2nc(C(F)(F)F)sc2N2CCO[C@H]3C[C@H]32)o1` (single isomer, unassigned) [Example 484], for which the EC50 is < 400 nM. On the same count and under the same terms, then `O=C1Nc2ccccc2C(c2ccccc2)=N[C@H]1Nc1nnc(-c2nc(C(F)(F)F)sc2N2CCO[C@H]3C[C@H]32)o1` (single isomer, unassigned) [Example 485], with > 800 nM; and `O=C1Nc2ccccc2C(c2ccccc2)=N[C@@H]1Nc1nnc(-c2nc(C(F)(F)F)sc2N2CCO[C@@H]3C[C@@H]32)o1` (single isomer, unassigned) [Example 486], with > 800 nM; and `O=C1Nc2ccccc2C(c2ccccc2)=N[C@H]1Nc1nnc(-c2nc(C(F)(F)F)sc2N2CCO[C@@H]3C[C@@H]32)o1` (single isomer, unassigned) [Example 487], with > 800 nM.

Still in this experiment, the particulars now being: human respiratory syncytial virus, HEp-2, 120 h, read-out: Human RSV-A (“Long” strain) EC50.
In the case of `O=C1Nc2ccccc2C(c2ccccc2)=N[C@@H]1Nc1nnc(-c2ncc(C(F)(F)F)cc2N2CCOC3CC32)o1` (mixture of isomers) [Example 466], the EC50 was < 400 nM. Same read-out and setting: then `O=C1Nc2ccccc2C(c2ccccc2)=N[C@@H]1Nc1nnc(-c2ncc(C(F)(F)F)cc2N2CCOC(C(F)(F)F)C2)o1` (mixture of isomers) [Example 467], with < 400 nM; and `N#Cc1ccc(-c2nnc(NC3N=C(c4ccccc4)c4ccccc4NC3=O)o2)nc1` (stereo not drawn) [Example 24], with 400 to 800 nM. On the same count and under the same terms, then `COc1cc(-c2nnc(NC3N=C(c4ccccc4)c4ccccc4NC3=O)o2)ccn1` (stereo not drawn) [Example 56], with > 800 nM. Consider `CCOC(=O)c1nnc(NC2N=C(c3ccccc3)c3ccccc3NC2=O)o1` (stereo not drawn) [Example 78], for which the EC50 was > 800 nM. On to `O=C1Nc2ccccc2C(c2ccccc2)=NC1Nc1ncc(-c2ccccc2)s1` (stereo not drawn) [Example 85], for which the EC50 is > 800 nM. With `O=C1Nc2ccccc2C(c2ccccc2)=NC1Nc1noc(-c2ccccc2)n1` (stereo not drawn) [Example 91], the EC50 is > 800 nM. Still for that read-out and setting: then `COc1ccc(CN2C(=O)C(C)(N)N=C(c3ccccc3)c3ccccc32)cc1` (stereo not drawn) [Example 102], with > 800 nM; and `CS(=O)(=O)c1ccc(-c2nnc(NC3N=C(c4ccccc4)c4ccccc4NC3=O)o2)nc1` (stereo not drawn) [Example 107], with > 800 nM; and `COc1ccc(-c2nnc(NC3N=C(c4ccccc4)c4ccccc4NC3=O)o2)nc1Cl` (stereo not drawn) [Example 109], with > 800 nM. Still for that read-out and setting: the same measure for `Cc1nc(-c2nnc(NC3N=C(c4ccccc4)c4ccccc4NC3=O)o2)ccc1F` (stereo not drawn) [Example 110]: > 800 nM; for `O=C1Nc2ccccc2C(c2ccccc2)=NC1Nc1nnc(-c2cccc(N3CCOCC3)c2)o1` (stereo not drawn) [Example 111]: > 800 nM. Same read-out and setting: then `O=C1Nc2ccccc2C(c2ccccc2)=NC1Nc1nnc(-c2ccc(N3CCOCC3)c(F)c2)o1` (stereo not drawn) [Example 112], with > 800 nM; and `O=C1Nc2ccccc2C(c2ccccc2)=NC1Nc1nnc(-c2ccc(N3CCOCC3)cn2)o1` (stereo not drawn) [Example 114], with > 800 nM; and `O=C1Nc2ccccc2C(c2ccccc2)=NC1Nc1nnc(-c2ccc(N3CCOCC3)nc2)o1` (stereo not drawn) [Example 115], with < 400 nM.

As to `O=C1Nc2ccccc2C(c2ccccc2)=NC1Nc1nnc(-c2ccc(NC3CCCCC3)cc2)o1` (stereo not drawn) [Example 116], the EC50 is > 800 nM. Turning to `COCCNc1ccc(-c2nnc(NC3N=C(c4ccccc4)c4ccccc4NC3=O)o2)cc1` (stereo not drawn) [Example 117], the EC50 is > 800 nM.

For the molecule `COCCN(C)c1ccc(-c2nnc(NC3N=C(c4ccccc4)c4ccccc4NC3=O)o2)cc1` (stereo not drawn) [Example 118], the EC50 is > 800 nM.

Consider `O=C1Nc2ccccc2C(c2ccccc2)=NC1Nc1nnc(-c2cc(F)ccc2N2CCOCC2)o1` (stereo not drawn) [Example 119], for which the EC50 is 400 to 800 nM.

For the molecule `CS(=O)(=O)c1ccc(-c2nnc(NC3N=C(c4ccccc4)c4ccccc4NC3=O)o2)c(N2CCOCC2)c1` (stereo not drawn) [Example 121], the EC50 is > 800 nM. On the same count and under the same terms, the same measure for `O=C1Nc2ccccc2C(c2ccccc2)=NC1Nc1nnc(-c2ccc(N3CCOCC3)cc2Cl)o1` (stereo not drawn) [Example 122]: > 800 nM; for `O=C1Nc2ccccc2C(c2ccccc2)=NC1Nc1nnc(-c2ccc(N3CCOCC3)cc2)o1` (stereo not drawn) [Example 124a]: < 400 nM. On the same count and under the same terms, the same measure for `O=C1Nc2ccccc2C(c2ccccc2)=N[C@H]1Nc1nnc(-c2ccc(N3CCOCC3)cc2)o1` [Example 124b]: > 800 nM; for `O=C1Nc2ccccc2C(c2ccccc2)=N[C@@H]1Nc1nnc(-c2ccccc2N2CCOCC2)o1` [Example 125a]: < 400 nM; for `O=C1Nc2ccccc2C(c2ccccc2)=N[C@H]1Nc1nnc(-c2ccccc2N2CCOCC2)o1` [Example 125b]: > 800 nM. Same read-out and setting: the same measure for `O=C1Nc2ccccc2C(c2ccccc2)=N[C@@H]1Nc1nnc(-c2ccc(N3CCOCC3)cc2F)o1` [Example 126a]: < 400 nM; for `O=C1Nc2ccccc2C(c2ccccc2)=N[C@H]1Nc1nnc(-c2ccc(N3CCOCC3)cc2F)o1` [Example 126b]: > 800 nM; for `O=C1Nc2ccccc2C(c2ccccc2)=NC1Nc1nnc(-c2ccc(-n3cncn3)cc2N2CCOCC2)o1` (stereo not drawn) [Example 128]: 400 to 800 nM. For the molecule `O=C1Nc2ccccc2C(c2ccccc2)=NC1Nc1nnc(-c2ccc(C(F)(F)F)nc2N2CCOCC2)o1` (stereo not drawn) [Example 130], the EC50 was 400 to 800 nM. For the molecule `O=C1Nc2ccccc2C(c2ccccc2)=NC1Nc1nnc(-c2ncccc2N2CCOCC2)o1` (stereo not drawn) [Example 132], the EC50 was < 400 nM.

Take `O=C1Nc2ccccc2C(c2ccccc2)=NC1Nc1nnc(-c2cnccc2N2CCOCC2)o1` (stereo not drawn) [Example 133]: the EC50 lay within 400 to 800 nM. Regarding `O=C1Nc2ccccc2C(c2ccccc2)=NC1Nc1nnc(-c2cnccc2N2CCCCC2)o1` (stereo not drawn) [Example 134], the EC50 is > 800 nM. The same measure, in the same setting: the same measure for `O=C1Nc2ccccc2C(c2ccccc2)=NC1Nc1nnc(-c2ncc(N3CCOCC3)cc2Cl)o1` (stereo not drawn) [Example 135]: > 800 nM; for `N#Cc1cnc(-c2nnc(NC3N=C(c4ccccc4)c4ccccc4NC3=O)o2)c(N2CCOCC2)c1` (stereo not drawn) [Example 140]: < 400 nM; for `O=C1Nc2ccccc2C(c2ccccc2)=NC1Nc1nnc(-c2ccncc2N2CCCCC2)o1` (stereo not drawn) [Example 141]: > 800 nM. `O=C1Nc2ccccc2C(c2ccccc2)=NC1Nc1nnc(-c2ccncc2N2CCOCC2)o1` (stereo not drawn) [Example 142]: the EC50 fell in the range of 400 to 800 nM. The same measure, in the same setting: the same measure for `O=C1Nc2ccccc2C(c2ccccc2)=NC1Nc1nnc(-c2nccnc2N2CCOCC2)o1` (stereo not drawn) [Example 143]: < 400 nM. The same measure, in the same setting: the same measure for `O=C1Nc2ccccc2C(c2ccccc2)=NC1Nc1nnc(-c2cc(F)cnc2N2CCOCC2)o1` (stereo not drawn) [Example 145]: 400 to 800 nM; for `O=C1Nc2ccccc2C(c2ccccc2)=NC1Nc1nnc(-c2cc(C(F)(F)F)cnc2N2CCOCC2)o1` (stereo not drawn) [Example 146]: > 800 nM; for `O=C1Nc2ccccc2C(c2ccccc2)=NC1Nc1nnc(-c2ccc(N3CCOCC3)cc2C(F)(F)F)o1` (stereo not drawn) [Example 147]: > 800 nM.

For the molecule `O=C1Nc2ccccc2C(c2ccccc2)=NC1Nc1nnc(-c2cccc(F)c2N2CCOCC2)o1` (stereo not drawn) [Example 148], the EC50 was > 800 nM.

Turning to `O=C1Nc2ccccc2C(c2ccccc2)=N[C@@H]1Nc1nnc(-c2ccc(F)nc2N2CCOCC2)o1` [Example 151, (S)-3-((5-(6-fluoro-2-morpholinopyridin-3-yl)-1,3,4-oxadiazol-2-yl)amino)-5-phenyl-1,3-dihydro-2H-benzo[e][1,4]diazepin-2-one], the EC50 was < 400 nM. Still for that read-out and setting: then `O=C1Nc2ccccc2C(c2ccccc2)=N[C@@H]1Nc1nnc(-c2ccc(C(F)(F)F)cc2N2CCOCC2)o1` [Example 152], with < 400 nM; and `O=C1Nc2ccccc2C(c2ccccc2)=N[C@@H]1Nc1nnc(-c2ccc(C3CC3)nc2N2CCOCC2)o1` [Example 154], with < 400 nM; and `O=C1Nc2ccccc2C(c2ccccc2)=N[C@@H]1Nc1nnc(-c2ccc(=O)[nH]c2N2CCOCC2)o1` [Example 156, (S)-3-((5-(2-morpholino-6-oxo-1,6-dihydropyridin-3-yl)-1,3,4-oxadiazol-2-yl)amino)-5-phenyl-1,3-dihydro-2H-benzo[e][1,4]diazepin-2-one], with > 800 nM. Same read-out and setting: then `N#Cc1ccc(-c2nnc(N[C@H]3N=C(c4ccccc4)c4ccccc4NC3=O)o2)c(N2CCOCC2)c1` [Example 157], with < 400 nM. Still for that read-out and setting: then `O=C1Nc2ccccc2C(c2ccccc2)=N[C@@H]1Nc1nnc(-c2ccc(F)cc2N2CCOCC2)o1` [Example 159], with < 400 nM.
